Laboratory results from patent US6699901B1, “Dicarboxylato diammine platinum derivatives and compositions comprising them as anti-tumor agents” (priority 2000, dated 2004).

Assays:
[1] = Toxic reactions in clinical trial (five-degree classification by WHO); type: in vivo, human
[2] = Effectiveness on oral administration; type: in vivo
hepatic cancer H22 cells = assay: Carcinostatic rates on hepatic cancer H22 in Kunming mice; type: in vivo; settings: for Tumor Weight: daily for seven days; for Mice After Injection: 10 mice before injection
Procedure: a). Divided 40 Kunming mice with weight ranging from 21 to 22 g, half male and half female randomly into 4 groups. Every group had 10 mice. Inoculated every mouse with 0.2 ml hepatic cancer H22 cells subcutaneously in right abdomen. […] The control group was given normal saline IP. The mice were put to death the day after withdrawal. Weighed the bodies and the tumor, calculated the carcinostatic rates.

double 1,1-cyclobutane dicarboxylic acid diaminoplatin complex [bicycloplatin]
adverse reactions [1]: no adverse reactions occur
effectiveness on oral administration [2]: significant therapeutic effects
Body Weight After Injection (hepatic cancer H22 cells; H22, 10 mg/kg): 27.9 g
Response rate (hepatic cancer H22 cells; H22, 10 mg/kg): 40.4%
Tumor Weight (hepatic cancer H22 cells; H22, 10 mg/kg abdominally): 0.95 ± 0.29 g
Mice After Injection (hepatic cancer H22 cells; H22, 10 mg/kg): 10
Body Weight After Injection (hepatic cancer H22 cells; H22, 20 mg/kg): 24.4 g
Response rate (hepatic cancer H22 cells; H22, 20 mg/kg): 67.0%
Tumor Weight (hepatic cancer H22 cells; H22, 20 mg/kg abdominally): 0.53 ± 0.26 g
Mice After Injection (hepatic cancer H22 cells; H22, 20 mg/kg): 10
Body Weight After Injection (hepatic cancer H22 cells; H22, 30 mg/kg): 22.4 g
Response rate (hepatic cancer H22 cells; H22, 30 mg/kg): 78.6%
Tumor Weight (hepatic cancer H22 cells; H22, 30 mg/kg abdominally): 0.34 ± 0.09 g
Mice After Injection (hepatic cancer H22 cells; H22, 30 mg/kg): 10
mortality (hepatic cancer H22 cells; H22, 10-30 mg/kg): no mortality occurs
weight gain of the treated groups (hepatic cancer H22 cells; H22, 10-30 mg/kg, versus control group): less than that of the control group
